In US9226882B2, “Eco-friendly non-aqueous antimicrobial composition comprising tropolone with 1,3-propanediol and/or sorbitan caprylate” (ISP INVESTMENTS INC., priority 2012, dated 2016):
Converted amounts (≈) assume the structure as drawn.

Columns and labels:
E. Coli (DSM 1576) = assay: MIC study on agar, bacterial strain; format: cell-based, Escherichia coli
Description: (§1) Equal amounts of mixtures were poured into four Petri dishes. After cooling, the Petri dishes were inoculated with the respective standard strains. During the experiment, the Petri dishes were kept for 2 to 3 weeks at room temperature of about 20 to 25° C. in the dark. The following two different types of culture media were employed for the present studies: • i. […] The preferred bacterial strains for the present application are Pseudomonas aeruginosa (DSM 1128), Staphylococcus aureus (DSM 799), E. Coli (DSM 1576), Proteus mirabilis (DSM 788) and Burkholderia cepacia (DSM 7288), and the preferred fungal strains are Aspergillus brasiliensis (DSM 1988), Penicillium expansum (DSM 1282), Trichoderma viride (DSM 63064), and the yeast is Candida albicans, (DSM 1386). After 2nd and 3rd weeks macroscopic evaluations were performed, the ratings are as follows: The formulation under examination is considered to be efficient if the following conditions are duly fulfilled i.e. (i) after 2-3 weeks no growth of the tested culture is visible; (ii) with rising concentration of the tested formulation, the germ growth should macroscopically be reduced until it is not visible any more.

[1] = tested on: Burkholderia cepacia (DSM 7288); assay: MIC study on agar, bacterial strain; format: cell-based
Description: as §1

[2] = tested on: Proteus mirabilis (DSM 788); assay: MIC study on agar, bacterial strain; format: cell-based; conditions: DSM788, Caso-Agar pH 7.3, 2 to 3 weeks at 20 to 25° C. in the dark
Description: as §1

[3] = tested on: Pseudomonas aeruginosa (DSM 1128); assay: MIC study on agar, bacterial strain; format: cell-based; conditions: DSM1128, Caso-Agar pH 7.3, 2 to 3 weeks at 20 to 25° C. in the dark
Description: as §1

[4] = tested on: Staphylococcus aureus (DSM 799); assay: MIC study on agar, bacterial strain; format: cell-based; conditions: DSM799, Caso-Agar pH 7.3, 2 to 3 weeks at 20 to 25° C. in the dark
Description: as §1

[5] = tested on: Aspergillus brasiliensis (DSM 1988); assay: MIC study on agar, fungal strain; format: cell-based
Description: as §1

[6] = tested on: Penicillium expansum (DSM 1282); assay: MIC study on agar, fungal strain; format: cell-based; conditions: DSM1282, Penicillim expansum, Malt extract-Agar (3%) pH 5.6, 2 to 3 weeks at 20 to 25° C. in the dark
Description: as §1

[7] = tested on: Trichoderma viride (DSM 63064); assay: MIC study on agar, fungal strain; format: cell-based
Description: as §1

[8] = tested on: Candida albicans, (DSM 1386); assay: MIC study on agar, yeast strain; format: cell-based; conditions: DSM1386, Candida albican, Malt extract-Agar (3%) pH 5.6, 2 to 3 weeks at 20 to 25° C. in the dark
Description: as §1

Q: O=c1cccccc1O [Tropolone, 2-Hydroxy-2,4,6-cycloheptatrien-1-one] was tested. Which MIC (E. Coli (DSM 1576); DSM1576, Escherichia coli, Caso-Agar pH 7.3, 2 to 3 weeks at 20 to 25° C. in the dark) did it give?
A: 250 µg/mL (≈ 2050 µM)

Q: What about the “reduction of MIC level of tropolone” value (E. Coli (DSM 1576); in presence of 1,3-propanediol (Zemea), against Escherichia coli) of the same molecule?
A: > 50%

Q: And the MIC ([1]; DSM7288, Burkholderia cepacia, Caso-Agar pH 7.3, 2 to 3 weeks at 20 to 25° C. in the dark)?
A: 250 µg/mL (≈ 2050 µM)

Q: And the “reduction of MIC level of tropolone” value ([1]; by sorbitan caprylate (Velsan SC), against Burkholderia cepacia)?
A: > 90%

Q: What about the MIC [2] of the same molecule?
A: 250 µg/mL (≈ 2050 µM)

Q: And the MIC [3]?
A: 500 µg/mL (≈ 4090 µM)

Q: What about the MIC [4] of the same molecule?
A: 250 µg/mL (≈ 2050 µM)

Q: What about the MIC ([5]; DSM1988, Aspergillus brasiliensis, Malt extract-Agar (3%) pH 5.6, 2 to 3 weeks at 20 to 25° C. in the dark) of the same molecule?
A: 50 µg/mL (≈ 409 µM)

Q: What about the “reduction of MIC level of tropolone” value ([5]; by sorbitan caprylate (Velsan SC), against Aspergillus brasiliensis) of the same molecule?
A: > 50%

Q: What about the MIC [6] of the same molecule?
A: 100 µg/mL (≈ 819 µM)

Q: What about the MIC ([7]; DSM63064, Trichoderma viride, Malt extract-Agar (3%) pH 5.6, 2 to 3 weeks at 20 to 25° C. in the dark) of the same molecule?
A: 250 µg/mL (≈ 2050 µM)

Q: What about the “reduction of MIC level of tropolone” value ([7]; by sorbitan caprylate (Velsan SC), against Trichoderma viride) of the same molecule?
A: > 50%

Q: What about the MIC [8] of the same molecule?
A: 20 µg/mL (≈ 164 µM)
